PubChem BioAssay (NCI)
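Grown in 96-well plates, cells were treated for 48 hours with each compound at five concentrations. Insufficient inhibition: endpoint recorded as highest concentration tested. GI50 marks 50% less growth. The concentration for full growth arrest is given as TGI.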

Experiments:
Assay in all cases: growth of human tumour cells (NCI), 48 h
COLO 205 colon = tested on: COLO 205 colon
OVCAR-3 ovarian = tested on: OVCAR-3 ovarian
SR leukemia = tested on: SR leukemia
MOLT-4 leukemia = tested on: MOLT-4 leukemia
A498 renal = tested on: A498 renal
UO-31 renal = tested on: UO-31 renal
HCC-2998 colon = tested on: HCC-2998 colon
U251 CNS = tested on: U251 CNS
DU-145 prostate = tested on: DU-145 prostate
RPMI-8226 leukemia = tested on: RPMI-8226 leukemia
SK-MEL-2 melanoma = tested on: SK-MEL-2 melanoma
SK-MEL-5 melanoma = tested on: SK-MEL-5 melanoma
A549 NSCLC = tested on: A549 NSCLC
HL-60(TB) leukemia = tested on: HL-60(TB) leukemia
OVCAR-4 ovarian = tested on: OVCAR-4 ovarian
M14 melanoma = tested on: M14 melanoma
K-562 leukemia = tested on: K-562 leukemia
HOP-62 NSCLC = tested on: HOP-62 NSCLC
SF-539 CNS = tested on: SF-539 CNS
NCI/ADR-RES ovarian = tested on: NCI/ADR-RES ovarian
SF-295 CNS = tested on: SF-295 CNS
BT-549 breast = tested on: BT-549 breast
SW-620 colon = tested on: SW-620 colon
MCF7 breast = tested on: MCF7 breast
MDA-MB-435 = tested on: MDA-MB-435
IGROV1 ovarian = tested on: IGROV1 ovarian
MDA-MB-231 breast = tested on: MDA-MB-231 breast
EKVX NSCLC = tested on: EKVX NSCLC
T-47D breast = tested on: T-47D breast
HOP-92 NSCLC = tested on: HOP-92 NSCLC
HCT-15 colon = tested on: HCT-15 colon
CCRF-CEM leukemia = tested on: CCRF-CEM leukemia
RXF 393 renal = tested on: RXF 393 renal
SNB-19 CNS = tested on: SNB-19 CNS
CAKI-1 renal = tested on: CAKI-1 renal
UACC-257 melanoma = tested on: UACC-257 melanoma
OVCAR-8 ovarian = tested on: OVCAR-8 ovarian
NCI-H226 lung = tested on: NCI-H226 lung
TK-10 renal = tested on: TK-10 renal
SN12C renal = tested on: SN12C renal
SK-OV-3 ovarian = tested on: SK-OV-3 ovarian
KM12 colon = tested on: KM12 colon
PC-3 prostate = tested on: PC-3 prostate
UACC-62 melanoma = tested on: UACC-62 melanoma
HS 578T breast = tested on: HS 578T breast
NCI-H522 lung = tested on: NCI-H522 lung
HCT-116 colon = tested on: HCT-116 colon
NCI-H23 lung = tested on: NCI-H23 lung
ACHN renal = tested on: ACHN renal
SK-MEL-28 melanoma = tested on: SK-MEL-28 melanoma
HT29 colon = tested on: HT29 colon
SF-268 CNS = tested on: SF-268 CNS
786-0 renal = tested on: 786-0 renal
OVCAR-5 ovarian = tested on: OVCAR-5 ovarian
NCI-H460 lung = tested on: NCI-H460 lung
SNB-75 CNS = tested on: SNB-75 CNS
LOX IMVI melanoma = tested on: LOX IMVI melanoma

Structure (SMILES): CC(C)(C)OC(=O)N(CCCCNC(=O)c1ccccc1)CCCNC(=O)c1ccccc1
- TGI (COLO 205 colon): > 100000 nM
- TGI (OVCAR-3 ovarian): > 100000 nM
- TGI (SR leukemia): > 100000 nM
- TGI (MOLT-4 leukemia): > 100000 nM
- TGI (A498 renal): > 100000 nM
- TGI (UO-31 renal): > 100000 nM
- TGI (HCC-2998 colon): > 100000 nM
- TGI (U251 CNS): > 100000 nM
- TGI (DU-145 prostate): > 100000 nM
- TGI (RPMI-8226 leukemia): > 100000 nM
- TGI (SK-MEL-2 melanoma): > 100000 nM
- TGI (SK-MEL-5 melanoma): > 100000 nM
- TGI (A549 NSCLC): > 100000 nM
- TGI (HL-60(TB) leukemia): > 100000 nM
- TGI (OVCAR-4 ovarian): > 100000 nM
- TGI (M14 melanoma): > 100000 nM
- TGI (K-562 leukemia): > 100000 nM
- TGI (HOP-62 NSCLC): > 100000 nM
- TGI (SF-539 CNS): > 100000 nM
- TGI (NCI/ADR-RES ovarian): > 100000 nM
- TGI (SF-295 CNS): > 100000 nM
- TGI (BT-549 breast): > 100000 nM
- TGI (SW-620 colon): > 100000 nM
- TGI (MCF7 breast): > 100000 nM
- TGI (MDA-MB-435): > 100000 nM
- TGI (IGROV1 ovarian): > 100000 nM
- TGI (MDA-MB-231 breast): > 100000 nM
- TGI (EKVX NSCLC): > 100000 nM
- TGI (T-47D breast): > 100000 nM
- TGI (HOP-92 NSCLC): > 100000 nM
- TGI (HCT-15 colon): > 100000 nM
- TGI (CCRF-CEM leukemia): > 100000 nM
- TGI (RXF 393 renal): > 100000 nM
- TGI (SNB-19 CNS): > 100000 nM
- TGI (CAKI-1 renal): > 100000 nM
- TGI (UACC-257 melanoma): > 100000 nM
- TGI (OVCAR-8 ovarian): > 100000 nM
- TGI (NCI-H226 lung): > 100000 nM
- TGI (TK-10 renal): > 100000 nM
- TGI (SN12C renal): > 100000 nM
- TGI (SK-OV-3 ovarian): > 100000 nM
- TGI (KM12 colon): > 100000 nM
- TGI (PC-3 prostate): > 100000 nM
- TGI (UACC-62 melanoma): > 100000 nM
- TGI (HS 578T breast): > 100000 nM
- TGI (NCI-H522 lung): > 100000 nM
- TGI (HCT-116 colon): > 100000 nM
- TGI (NCI-H23 lung): > 100000 nM
- TGI (ACHN renal): > 100000 nM
- TGI (SK-MEL-28 melanoma): > 100000 nM
- TGI (HT29 colon): > 100000 nM
- TGI (SF-268 CNS): > 100000 nM
- TGI (786-0 renal): > 100000 nM
- TGI (OVCAR-5 ovarian): > 100000 nM
- TGI (NCI-H460 lung): > 100000 nM
- TGI (SNB-75 CNS): > 100000 nM

Structure (SMILES): Nc1ncnc2c1nc(N)n2C1OC(CO)C(O)C1O (centres undefined)
- GI50 (COLO 205 colon): 142 nM
- TGI (COLO 205 colon): 1160 nM
- GI50 (OVCAR-3 ovarian): 892 nM
- TGI (OVCAR-3 ovarian): 4750 nM
- GI50 (SR leukemia): 524 nM
- TGI (SR leukemia): 4380 nM
- GI50 (MOLT-4 leukemia): 1760 nM
- TGI (MOLT-4 leukemia): > 24400 nM
- GI50 (A498 renal): 657 nM
- TGI (A498 renal): 1940 nM
- GI50 (UO-31 renal): 295 nM
- TGI (UO-31 renal): 2820 nM
- GI50 (HCC-2998 colon): 320 nM
- TGI (HCC-2998 colon): 1660 nM
- GI50 (U251 CNS): 1350 nM
- TGI (U251 CNS): 7060 nM
- GI50 (DU-145 prostate): 401 nM
- TGI (DU-145 prostate): 2090 nM
- GI50 (RPMI-8226 leukemia): 973 nM
- TGI (RPMI-8226 leukemia): 6480 nM
- GI50 (SK-MEL-2 melanoma): 720 nM
- TGI (SK-MEL-2 melanoma): 2920 nM
- GI50 (SK-MEL-5 melanoma): 1250 nM
- TGI (SK-MEL-5 melanoma): 2610 nM
- GI50 (A549 NSCLC): 331 nM
- TGI (A549 NSCLC): 2020 nM
- GI50 (HL-60(TB) leukemia): 376 nM
- TGI (HL-60(TB) leukemia): 3670 nM
- GI50 (OVCAR-4 ovarian): 1420 nM
- TGI (OVCAR-4 ovarian): 7160 nM
- GI50 (M14 melanoma): 110 nM
- TGI (M14 melanoma): 355 nM
- GI50 (K-562 leukemia): 271 nM
- TGI (K-562 leukemia): > 100000 nM
- GI50 (HOP-62 NSCLC): 311 nM
- TGI (HOP-62 NSCLC): 2710 nM
- GI50 (SF-539 CNS): 1880 nM
- TGI (SF-539 CNS): 3980 nM
- GI50 (NCI/ADR-RES ovarian): 697 nM
- TGI (NCI/ADR-RES ovarian): 3290 nM
- GI50 (SF-295 CNS): 1780 nM
- TGI (SF-295 CNS): 6090 nM
- GI50 (BT-549 breast): 1650 nM
- TGI (BT-549 breast): 3360 nM
- GI50 (SW-620 colon): 182 nM
- TGI (SW-620 colon): 1310 nM
- GI50 (MCF7 breast): 389 nM
- TGI (MCF7 breast): 10400 nM
- GI50 (MDA-MB-435): 153 nM
- TGI (MDA-MB-435): 773 nM
- GI50 (IGROV1 ovarian): 238 nM
- TGI (IGROV1 ovarian): 863 nM
- GI50 (MDA-MB-231 breast): 518 nM
- TGI (MDA-MB-231 breast): 4860 nM
- GI50 (EKVX NSCLC): 231 nM
- TGI (EKVX NSCLC): 1270 nM
- GI50 (T-47D breast): 449 nM
- TGI (T-47D breast): 2680 nM
- GI50 (HOP-92 NSCLC): 340 nM
- TGI (HOP-92 NSCLC): 1830 nM
- GI50 (HCT-15 colon): 433 nM
- TGI (HCT-15 colon): 10700 nM
- GI50 (CCRF-CEM leukemia): 1300 nM
- TGI (CCRF-CEM leukemia): > 22900 nM
- GI50 (RXF 393 renal): 1450 nM
- TGI (RXF 393 renal): 3360 nM
- GI50 (SNB-19 CNS): 1340 nM
- TGI (SNB-19 CNS): 6280 nM
- GI50 (CAKI-1 renal): 318 nM
- TGI (CAKI-1 renal): 1590 nM
- GI50 (UACC-257 melanoma): 229 nM
- TGI (UACC-257 melanoma): 857 nM
- GI50 (OVCAR-8 ovarian): 630 nM
- TGI (OVCAR-8 ovarian): 2980 nM
- GI50 (NCI-H226 lung): 1030 nM
- TGI (NCI-H226 lung): 3380 nM
- GI50 (TK-10 renal): 458 nM
- GI50 (SN12C renal): 418 nM
- TGI (SN12C renal): 3210 nM
- GI50 (LOX IMVI melanoma): 212 nM
- TGI (LOX IMVI melanoma): 1170 nM
- GI50 (SK-OV-3 ovarian): 520 nM
- TGI (SK-OV-3 ovarian): 3450 nM
- GI50 (KM12 colon): 266 nM
- TGI (KM12 colon): 867 nM
- GI50 (PC-3 prostate): 1070 nM
- TGI (PC-3 prostate): 8210 nM
- GI50 (UACC-62 melanoma): 251 nM
- TGI (UACC-62 melanoma): 1200 nM
- GI50 (HS 578T breast): 2450 nM
- TGI (HS 578T breast): > 28400 nM
- GI50 (NCI-H522 lung): 809 nM
- TGI (NCI-H522 lung): 2610 nM
- GI50 (HCT-116 colon): 302 nM
- TGI (HCT-116 colon): 10500 nM
- GI50 (NCI-H23 lung): 309 nM
- TGI (NCI-H23 lung): 2230 nM
- GI50 (ACHN renal): 348 nM
- TGI (ACHN renal): > 100000 nM
- GI50 (SK-MEL-28 melanoma): 267 nM
- TGI (SK-MEL-28 melanoma): 1330 nM
- GI50 (HT29 colon): 58.9 nM
- TGI (HT29 colon): 1310 nM
- GI50 (SF-268 CNS): 930 nM
- TGI (SF-268 CNS): 2810 nM
- GI50 (786-0 renal): 1550 nM
- TGI (786-0 renal): 3710 nM
- GI50 (OVCAR-5 ovarian): 221 nM
- TGI (OVCAR-5 ovarian): 15400 nM
- GI50 (NCI-H460 lung): 454 nM
- TGI (NCI-H460 lung): 1930 nM
- GI50 (SNB-75 CNS): 1880 nM
- TGI (SNB-75 CNS): 3700 nM
